pIC50: −log10 of the molar value.
Key:
[1] = target: Epidermal growth factor receptor (Homo sapiens, UniProt P00533, C797S/T790M); assay: Inhibition of EGFR T790M/C797S double mutant (unknown origin) using flurogenic substrate in presence of ATP by HTRF assay
[2] = Selectivity index, ratio of IC50 Inhibition of wild type EGFR (unknown origin) to IC50 for Inhibition of EGFR T790M/C797S double mutant (unknown origin)
[3] = test system: NCI-H1975; assay: cells; assay type: functional, cell-based; conditions: Homo sapiens, NCI-H1975, 72 h
[4] = test system: NCI-H1299; assay: Antiproliferative activity against human NCI-H1299 cells expressing wild type EGFR assessed as inhibition in cell viability after 72 hrs by CCK8 assay; assay type: functional, cell-based; conditions: NCI-H1299, 72 h
[5] = test system: NCI-H1299; assay: Induction of cell cycle arrest in human NCI-H1299 cells assessed as accumulation at G2/M phase at 0.02 uM after 36 hrs by PI staining based flow cytometry analysis (reference value: 5.6%); assay type: functional
[6] = test system: NCI-H1299; assay: Induction of cell cycle arrest in human NCI-H1299 cells assessed as accumulation at S phase at 0.02 uM after 36 hrs by PI staining based flow cytometry analysis (reference value: 24.8%); assay type: functional
[7] = test system: NCI-H1299; assay: Induction of cell cycle arrest in human NCI-H1299 cells assessed as accumulation at G2/M phase at 0.1 uM after 36 hrs by PI staining based flow cytometry analysis (reference value: 5.6%); assay type: functional
[8] = test system: NCI-H1299; assay: Induction of cell cycle arrest in human NCI-H1299 cells assessed as accumulation at G0/G1 phase at 0.5 uM after 36 hrs by PI staining based flow cytometry analysis (reference value: 70.2%); assay type: functional
[9] = test system: NCI-H1299; assay: Induction of cell cycle arrest in human NCI-H1299 cells assessed as accumulation at G2/M phase at 0.5 uM after 36 hrs by PI staining based flow cytometry analysis (reference value: 5.6%); assay type: functional
[10] = test system: NCI-H1299; assay: Induction of cell cycle arrest in human NCI-H1299 cells assessed as accumulation at S phase at 2.5 uM after 36 hrs by PI staining based flow cytometry analysis (reference value: 24.8%); assay type: functional
[11] = test system: NCI-H1975; assay: Induction of cell cycle arrest in human NCI-H1975 cells assessed as accumulation at G2/M phase at 0.02 uM after 36 hrs by PI staining based flow cytometry analysis (reference value: 43.1%); assay type: functional
[12] = test system: NCI-H1975; assay: Induction of cell cycle arrest in human NCI-H1975 cells assessed as accumulation at S phase at 0.02 uM after 36 hrs by PI staining based flow cytometry analysis (reference value: 32.7 %); assay type: functional
[13] = test system: NCI-H1975; assay: Induction of cell cycle arrest in human NCI-H1975 cells assessed as accumulation at G0/G1 phase at 0.1 uM after 36 hrs by PI staining based flow cytometry analysis (reference value: 24.2%); assay type: functional
[14] = test system: NCI-H1975; assay: Induction of cell cycle arrest in human NCI-H1975 cells assessed as accumulation at G2/M phase at 0.1 uM after 36 hrs by PI staining based flow cytometry analysis (reference value: 43.1%); assay type: functional
[15] = test system: NCI-H1975; assay: Induction of cell cycle arrest in human NCI-H1975 cells assessed as accumulation at G0/G1 phase at 0.5 uM after 36 hrs by PI staining based flow cytometry analysis (reference value: 24.2%); assay type: functional
[16] = test system: NCI-H1975; assay: Induction of cell cycle arrest in human NCI-H1975 cells assessed as accumulation at G2/M phase at 0.5 uM after 36 hrs by PI staining based flow cytometry analysis (reference value: 43.1%); assay type: functional
[17] = test system: NCI-H1299; assay: Induction of apoptosis in human NCI-H1299 cells assessed as increase in viable cells at 0.02 uM after 36 hrs by annexin-V-FITC/PI staining based flow cytometric analysis (reference value: 94.1%); assay type: functional
[18] = test system: NCI-H1299; assay: Induction of apoptosis in human NCI-H1299 cells assessed as increase in early apoptotic cells at 0.02 uM after 36 hrs by annexin-V-FITC/PI staining based flow cytometric analysis (reference value: 0.79%); assay type: functional
[19] = test system: NCI-H1299; assay: Induction of apoptosis in human NCI-H1299 cells assessed as increase in late apoptotic cells at 0.02 uM after 36 hrs by annexin-V-FITC/PI staining based flow cytometric analysis (reference value: 4.39%); assay type: functional
[20] = test system: NCI-H1299; assay: Induction of apoptosis in human NCI-H1299 cells assessed as increase in necrotic cells at 0.02 uM after 36 hrs by annexin-V-FITC/PI staining based flow cytometric analysis (reference value: 0.75%); assay type: functional
[21] = test system: NCI-H1299; assay: Induction of apoptosis in human NCI-H1299 cells assessed as increase in early apoptotic cells at 0.1 uM after 36 hrs by annexin-V-FITC/PI staining based flow cytometric analysis (reference value: 0.79%); assay type: functional
[22] = test system: NCI-H1299; assay: Induction of apoptosis in human NCI-H1299 cells assessed as increase in viable cells at 0.5 uM after 36 hrs by annexin-V-FITC/PI staining based flow cytometric analysis (reference value: 94.1%); assay type: functional
[23] = test system: NCI-H1299; assay: Induction of apoptosis in human NCI-H1299 cells assessed as increase in necrotic cells at 0.5 uM after 36 hrs by annexin-V-FITC/PI staining based flow cytometric analysis (reference value: 0.75%); assay type: functional
[24] = test system: NCI-H1299; assay: Induction of apoptosis in human NCI-H1299 cells assessed as increase in viable cells at 2.5 uM after 36 hrs by annexin-V-FITC/PI staining based flow cytometric analysis (reference value: 94.1%); assay type: functional
[25] = test system: NCI-H1299; assay: Induction of apoptosis in human NCI-H1299 cells assessed as increase in early apoptotic cells at 2.5 uM after 36 hrs by annexin-V-FITC/PI staining based flow cytometric analysis (reference value: 0.79%); assay type: functional
[26] = test system: NCI-H1299; assay: Induction of apoptosis in human NCI-H1299 cells assessed as increase in late apoptotic cells at 2.5 uM after 36 hrs by annexin-V-FITC/PI staining based flow cytometric analysis (reference value: 4.39%); assay type: functional
[27] = test system: NCI-H1975; assay: Induction of apoptosis in human NCI-H1975 cells assessed as increase in viable cells at 0.02 uM after 36 hrs by annexin-V-FITC/PI staining based flow cytometric analysis (reference value: 94.6%); assay type: functional
[28] = test system: NCI-H1975; assay: Induction of apoptosis in human NCI-H1975 cells assessed as increase in late apoptotic cells at 0.02 uM after 36 hrs by annexin-V-FITC/PI staining based flow cytometric analysis (reference value: 3.85%); assay type: functional
[29] = test system: NCI-H1975; assay: Induction of apoptosis in human NCI-H1975 cells assessed as increase in necrotic cells at 0.02 uM after 36 hrs by annexin-V-FITC/PI staining based flow cytometric analysis (reference value: 0.35%); assay type: functional
[30] = test system: NCI-H1975; assay: Induction of apoptosis in human NCI-H1975 cells assessed as increase in early apoptotic cells at 0.5 uM after 36 hrs by annexin-V-FITC/PI staining based flow cytometric analysis (reference value: 1.24%); assay type: functional
[31] = test system: NCI-H1975; assay: Induction of apoptosis in human NCI-H1975 cells assessed as increase in late apoptotic cells at 2.5 uM after 36 hrs by annexin-V-FITC/PI staining based flow cytometric analysis (reference value: 3.85%); assay type: functional

Epidermal growth factor receptor, sequence (P00533 25-1210 T790M/C797S limits assumed): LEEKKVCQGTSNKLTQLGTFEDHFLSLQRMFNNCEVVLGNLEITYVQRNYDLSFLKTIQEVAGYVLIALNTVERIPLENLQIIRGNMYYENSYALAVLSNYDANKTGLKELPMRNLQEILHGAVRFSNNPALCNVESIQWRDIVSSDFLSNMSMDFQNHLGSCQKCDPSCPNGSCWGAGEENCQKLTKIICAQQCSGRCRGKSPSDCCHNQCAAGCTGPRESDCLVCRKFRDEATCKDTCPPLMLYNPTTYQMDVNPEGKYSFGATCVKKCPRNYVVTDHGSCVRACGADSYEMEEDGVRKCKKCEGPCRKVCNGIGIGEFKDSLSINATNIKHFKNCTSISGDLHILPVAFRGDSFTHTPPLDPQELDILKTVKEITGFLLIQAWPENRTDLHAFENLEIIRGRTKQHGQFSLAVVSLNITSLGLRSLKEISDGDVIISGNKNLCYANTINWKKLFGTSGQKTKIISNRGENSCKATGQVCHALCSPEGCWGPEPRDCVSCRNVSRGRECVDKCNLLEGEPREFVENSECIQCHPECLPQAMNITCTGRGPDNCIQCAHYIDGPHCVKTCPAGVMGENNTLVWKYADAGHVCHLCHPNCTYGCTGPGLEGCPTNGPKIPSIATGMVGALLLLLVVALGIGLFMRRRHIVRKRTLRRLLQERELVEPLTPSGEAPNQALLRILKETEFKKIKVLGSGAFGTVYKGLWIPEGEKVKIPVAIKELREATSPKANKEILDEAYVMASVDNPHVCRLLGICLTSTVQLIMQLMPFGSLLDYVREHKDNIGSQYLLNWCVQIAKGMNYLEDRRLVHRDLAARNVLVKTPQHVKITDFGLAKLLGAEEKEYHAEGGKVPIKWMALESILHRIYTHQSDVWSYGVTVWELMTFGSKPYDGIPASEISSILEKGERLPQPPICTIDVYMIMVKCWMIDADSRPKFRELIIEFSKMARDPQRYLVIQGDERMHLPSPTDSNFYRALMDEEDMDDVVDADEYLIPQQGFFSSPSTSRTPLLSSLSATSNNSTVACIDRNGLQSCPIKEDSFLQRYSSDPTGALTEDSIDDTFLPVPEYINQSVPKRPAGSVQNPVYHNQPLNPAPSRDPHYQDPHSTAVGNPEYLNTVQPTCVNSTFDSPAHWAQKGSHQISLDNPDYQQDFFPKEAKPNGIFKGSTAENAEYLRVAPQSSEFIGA

With `C#CCN(C)CCN(C)c1cc(OC)c(Nc2nccc(Nc3cn(C)c4ccccc34)n2)cc1NC(=O)C=C` the pIC50 [1] was 8.40, the Ratio IC50 [2] was over 2490 and the pIC50 [3] was 8.59. For the same compound, the pIC50 [4] was under 4.00, the Activity [5] was 6.8% and the Activity [6] was 23.8%. The Activity [7] was 5.7%, the Activity [8] was 68.4% and the Activity [9] was 6%. The Activity [10] was 24.7%, the Activity [11] was 50.2% and the Activity [12] was 27.3%. For the same compound, the Activity [13] was 19.1%, the Activity [14] was 58.2% and the Activity [15] was 18.3%. The Activity [16] was 62.6%, the Activity [17] was 93.1% and the Activity [18] was 1.05%. The Activity [19] was 5.17%, the Activity [20] was 0.65% and the Activity [21] was 1.06%. The Activity [22] was 92.6%, the Activity [23] was 0.77% and the Activity [24] was 92.1%. It also gave an Activity [25] of 0.95%, an Activity [26] of 6.35% and an Activity [27] of 94.9%. It also gave an Activity [28] of 3.09%, an Activity [29] of 0.038% and an Activity [30] of 12.2%. The Activity [31] was 7.25%.
